Assays:
[1] = Pharmacokinetic/pharmacodynamic models (probabilistic and continuous) for level of sedation (MOAA/S score); set-up: species or system human; settings: subjects older than 65
[2] = Stella reports, cited from earlier work
[3] = Population pharmacokinetic model (linear 5-compartment, NONMEM) of venous plasma concentrations; set-up: species or system human; settings: population PK model; lean body weight covariate
patients = settings: anesthetic induction doses; Bryson et al.; cited from earlier work

| Structure (SMILES) | Lowering of effect site concentration at which a given MOAA/S score is attained, versus younger subjects ([1]; continuous model) | Lowering of effect site concentration at which a given MOAA/S score is attained, versus younger subjects ([1]; probabilistic model) | Stability at pH levels suitable for making pharmaceutical formulations [2] | Breakdown in vivo under physiological conditions ([2]; administered intravenously) | Increase of central volume of propofol generated from the prodrug [3] | Increase of central volume of the prodrug [3] | Increase of clearance of the prodrug [3] | Patients with respiratory consequences, including a reduction in tidal volume and apnea (patients) |
| --- | --- | --- | --- | --- | --- | --- | --- | --- |
| CC(C)c1cccc(C(C)C)c1OCOP(=O)([O-])[O-].[Na+].[Na+] [propofol prodrug, O-phosphonooxymethyl propofol disodium salt] | about 25% | about 33% | good stability | quickly breaks down in vivo | 2.5 % per kg of LBW over 55 kg | 1.8 % per kg of LBW over 55 kg | 1.4 % per kg of LBW over 55 kg | – |
| CC(C)c1cccc(C(C)C)c1O [propofol] | – | – | – | – | – | – | – | up to 83% |
